Experimental data: PMC12195615, “In Vitro and In Silico Assessments of Curcuminoids and Turmerones from Curcuma longa as Novel Inhibitors of Leishmania infantum Arginase” (Pharmaceuticals, 2025)
Values after ≈ are worked out from the molar mass of the structure shown. Like-named read-outs stand apart in the source and are kept apart here. Marks after values point to notes of the source that are not given here.

Experiments:
[1] = target: recombinant arginase from L. infantum (LiARG) (Leishmania infantum, UniProt A4IB49); assay: LiARG inhibition assay (urea quantification); type: biochemical
Experimental: The expression and purification of recombinant arginase from L. infantum (LiARG) were previously detailed by our group. LiARG inhibition was performed by incubating different concentrations (4.7 to 100 μg/mL) of the samples in the enzymatic reaction solution: 50 mM CHES buffer (pH 9.5) and 50 mM L-arginine. The enzymatic reaction was initiated by adding LiARG (10 μg/mL) and allowed to proceed for 5 min at 37 °C before being stopped on ice. Subsequently, enzymatic activity was assessed by measuring the conversion of L-arginine to urea using a commercial kit (Labtest UREA CE kit®, Lagoa Santa, MG, Brazil). The amount of urea produced in each reaction was determined spectrophotometrically at 600 nm, following its hydrolysis into ammonia and conversion into indophenol blue. […] From that, the IC50 was determined by regression analysis.

[2] = system: Leishmania amazonensis promastigotes; assay: Anti-promastigote activity (resazurin), L. amazonensis; type: cell-based; settings: 48 h
Experimental: (§1) Promastigote forms of Leishmania infantum (MHOM/BR/1974/PP75) and Leishmania amazonensis (IFLA/BR/1967/PH8) were cultured in complete Schneider’s Insect Medium (SIM, 10% FBS). […] Drug-free parasite cultures served as a positive control of viability. […] After 24 h of promastigote incubation, 100 μM resazurin was added, and the cells were cultured for an additional 24 h. At 48 h of the treatment, parasites were assessed fluorometrically (555 nm excitation and 585 nm emission) for viability using a microplate reader Spectra Max M2 (Molecular Devices, CA, USA). Dose–response curves were then generated, and the half-maximal inhibitory concentrations (IC50) for each treatment were determined through regression analysis.

[3] = system: Leishmania infantum promastigotes; assay: Anti-promastigote activity (resazurin), L. infantum; type: cell-based; settings: for IC50: Leishmania infantum; for L. infantum IC50 ± SE: promastigotes, resazurin
Experimental: as §1

[4] = system: intracellular L. infantum amastigotes; assay: Inhibition of intracellular amastigotes in infected RAW 264.7 macrophages; type: cell-based, Leishmania infantum; settings: for number of amastigotes per 100 infected macrophages: 20 μg/mL, 48 h, vs untreated control, p < 0.05; for IC50: Leishmania infantum
Experimental: (§2) After adhesion, the cells were incubated for 24 h in the presence of L. infantum promastigotes at a ratio of 10 parasites per macrophage at 35 °C in a 5% CO2 atmosphere. After the interaction period, the wells were washed with PBS to remove non-internalized promastigotes, and the infected macrophages were incubated for 24 h under the same conditions. […] Untreated infected macrophages served as a positive control for amastigote viability. After 48 h of treatment, the supernatant was collected, and the coverslips were stained with Panoptic. […] The IC50 was then calculated using dose–response curve regression analysis.

[5] = system: NO production by RAW 264.7 macrophages infected with L. infantum; assay: NO production (Griess reaction) by L. infantum-infected macrophages; type: cell-based, murine; settings: 48 h treatment, compared to untreated control
Experimental: as §2
The supernatant from L. infantum-infected macrophages, treated as described in Section 3.11, was collected to assess NO production using the Griess reaction. In short, 100 µL of the collected supernatants were transferred to 96-well microplates, followed by the addition of an equal volume of Griess reagent (0.5% sulfanilamide and 0.05% naphthylenediamine dihydrochloride in 5% phosphoric acid) to each well. The plates were then incubated at room temperature in the dark for 20 min. After incubation, the absorbance was measured at 570 nm.

[6] = system: sheep red blood cells (RBC); settings: for hemolytic activity (CH50) RBC: sheep RBC, 1 h at 37 °C, mean ± SE
Experimental: Blood samples were washed four times with cold PBS to remove plasma, and a 4% (v/v) RBC suspension was prepared in the same buffer. […] After a 1 h incubation at 37 °C, the reaction was stopped by adding 200 µL of PBS. A positive hemolysis control was performed by adding 200 µL of distilled water to untreated cells. The microplates were then centrifuged (2000 rpm/5 min), and 200 µL of the supernatants were transferred to new 96-well microplates for spectrophotometric analysis at 540 nm (SpectraMax M2, Molecular Devices, CA, USA). The percentage of hemolysis for each treatment was calculated relative to the hemolysis control (100%), and the 50% hemolytic concentration (HC50) was determined through regression analysis of the dose–response curves.

[7] = system: mouse arginase; settings: colorectal cancer model; cited from earlier work
[8] = system: L. major promastigotes; set-up: method as in PMID 10865470; settings: cited from earlier work
[9] = system: L. major promastigotes; settings: 15 µM; cited from earlier work
[10] = system: promastigotes and axenic amastigotes of L. donovani; settings: 15 µM; cited from earlier work
[11] = system: L. donovani promastigotes; settings: read-out: IC50 against L. donovani promastigotes; cited from earlier work
[12] = system: intracellular amastigote; settings: 20 µM, within 24 h of treatment; cited from earlier work
[13] = system: L. braziliensis; settings: topical 1.5 mg/day, hamsters infected with L. braziliensis; cited from earlier work
[14] = Cytotoxicity assay (MTT), RAW 264.7; settings: mouse, RAW 264.7 macrophage cells
Experimental: (§3) RAW 264.7 (murine macrophages) and VERO (normal African green monkey kidney epithelial cells) lines were obtained from Banco de Células do Rio de Janeiro (BCRJ, RJ, Brazil) under the codes 0212 and 0245, respectively. Both were cultured in complete DMEM medium (10% FBS, 100 U/mL penicillin, 100 µg/mL streptomycin, and 3 µg/mL Fungizone®) at 37 °C and 5% CO2 atmosphere. After reaching subconfluence, the cells were washed twice with cold phosphate saline buffer (PBS, pH 7.2), detached by trypsinization, and seeded into 96-well microplates (10^5 cells/100 μL). […] The cells were further incubated under the same conditions for another 48 h. Drug-free cells cultured in DMEM served as positive controls of viability. The concentration of the solvent (DMSO) was normalized in all wells (1%) of treatment and control. Cell viability was assessed using a colorimetric assay based on the reduction of tetrazolium salt [69].

[15] = system: VERO (normal African green monkey kidney epithelial cells); assay: Cytotoxicity assay (MTT), VERO; type: cell-based; settings: 48 h treatment, mean ± SE
Experimental: as §3

[16] = system: RAW 264.7 (murine macrophages); assay: Cytotoxicity assay (MTT), RAW 264.7; settings: 48 h treatment, MTT; mean ± SE
Experimental: as §3

[17] = system: Pgp; settings: affected the uptake of rhodamine-123 and digoxin; cited from earlier work
[18] = system: human arginase I; set-up: method as in PMID 37462864; settings: cited from earlier work
[19] = system: J774.A.1 macrophages; set-up: method as in PMID 35325685; settings: cited from earlier work

Compound: COc1cc(/C=C/C(=O)CC(=O)/C=C/c2ccc(O)c(OC)c2)ccc1O [compound 1, curcumin]
- IC50 [1]: 47.6 µM
- IC50 ([2]; Leishmania amazonensis, read-out: L. amazonensis IC50 ± SE): 5.5 ± 0.45 µg/mL (≈ 14.9 µM)
- IC50 ([3]; 48 h, read-out: L. infantum IC50 ± SE, promastigotes, 48 h, resazurin): 15 µg/mL
- IC50 ([3]; read-out: IC50 against L. infantum promastigotes (molar), converted from 15.5 µg/mL): ~42 µM
- L. infantum IC50 ± SE ([3]; 48 h, listed as Curcumin (1)): 15.5 ± 1.7 ^c µg/mL
- number of amastigotes per 100 infected macrophages [4]: significantly reduced
- IC50 ([4]; RAW264.7, 48 h, read-out: IC50 against intracellular L. infantum amastigotes): 13.6 µg/mL
- IC50 ([4]; RAW264.7, converted from 13.6 µg/mL, read-out: IC50 against L. infantum intracellular amastigotes): ~36.9 µM
- NO levels [5]: reduced NO levels at concentrations starting from 5 µg/mL
- hemolytic activity (CH50) RBC [6]: >200 µg/mL
- reduction of mouse arginase activity [7]: 73%
- IC50 against L. major promastigotes [8]: 7.8 ± 3.3 µg/mL (≈ 21.2 µM)
- growth of L. major promastigotes [9]: did not inhibit the growth
- growth of promastigotes and axenic amastigotes of L. donovani [10]: did not inhibit the growth
- IC50 [11]: 25 µM
- reduction of intracellular amastigote load [12]: 85%
- therapeutic response [13]: 83%
- CC50 at 48 h [14]: 69.8 ± 2.8 µg/mL (≈ 189 µM)

Compound: O.O.O.O=C([O-])C(O)C(O)C(=O)[O-].O=C([O-])C(O)C(O)C(=O)[O-].[K+].[K+].[Sb].[Sb] (stereo not drawn) [PAT, potassium antimony(III) tartrate hydrate, reference compound]
- Cytotoxicity (CC50) VERO [15]: 23.9 ± 1.5 ^b μg/mL
- L. amazonensis IC50 ± SE ([2]; promastigotes, resazurin): 11.9 ± 3.1 ^c,d µg/mL
- L. infantum IC50 ± SE ([3]; 48 h): <6.25 µg/mL
- number of amastigotes per 100 infected macrophages [4]: significantly reduced
- IC50 against intracellular L. infantum amastigotes ([4]; infected RAW 264.7, 48 h treatment): 18.9 ± 4.06 µg/mL
- NO levels [5]: increased NO levels at 10 and 20 µg/mL
- hemolytic potential ([6]; at the highest concentration tested (100 μg/mL)): did not show hemolytic potential
- hemolytic activity (CH50) RBC [6]: >100 µg/mL
- Cytotoxicity (CC50) RAW 264.7 [16]: 30.8 ± 0.73 ^b μg/mL

Compound: O=C(/C=C/c1ccc(O)cc1)CC(=O)/C=C/c1ccc(O)cc1 [compound 3, bisdemethoxycurcumin]
- IC50 against L. major promastigotes [8]: 21.5 ± 6.9 µg/mL (≈ 69.7 µM)

Compound: COc1cc(/C=C/C(O)=C/C(=O)/C=C/c2ccc(O)cc2)ccc1O [compound 2, demethoxycurcumin]
- IC50 against L. major promastigotes [8]: 14.1 ± 4.8 µg/mL (≈ 41.7 µM)

Compound: O=c1c(O)c(-c2ccc(O)c(O)c2)oc2cc(O)cc(O)c12 [Quercetin (7), Quercetin, reference compound]
- IC50 [1]: < 20.7 µM

Compound: CC(C)=CC(=O)C[C@H](C)C1C=CC(C)=CC1 (stereo partly drawn) [compound 5, α-turmerone]
- Pgp inhibition [17]: Pgp inhibitor

Compound: CC(C)C1=C[C@H]2[C@@H](CC[C@]2(C)O)[C@](C)(O)CC1 [alismoxide]
- inhibitory activity against human arginase I [18]: showed inhibitory activity

Compound: CC(C)=CC(=O)C[C@H](C)c1ccc(C)cc1 [compound 4, ar-turmerone]
- CC50 J774.A.1 macrophages [19]: 720.06 µg/mL (≈ 3330 µM)
